Patent US20090299056A1 (priority 2005, published 2009)

Tests used:
shigella = details: cited from earlier work
[1] = tested on: Corynebacterium diphtheriae; details: cited from earlier work
Streptococcus pneumoniae = details: cited from earlier work
Haemophilus influenzae = details: cited from earlier work
proteus mirabilis = details: cited from earlier work
actistaphylococcus = details: cited from earlier work
[2] = tested on: streptococcus haemolytica; details: cited from earlier work
listeria = details: cited from earlier work
neisseria = details: cited from earlier work
P. aeruginosa = details: cited from earlier work
klebsiella pneumoniae = details: cited from earlier work
acinetobacter = details: cited from earlier work
Gram-positive coccus = details: except enterococcus, methicillin-resistant staphylococcus; cited from earlier work
Typhoid bacillus = details: cited from earlier work
[3] = tested on: PPNG (Penicillinase-Producing Neisseria gonorrheae); details: cited from earlier work
bacillus anthracis = details: cited from earlier work
partial E.coli = details: cited from earlier work
other enterobacteriaceae = details: cited from earlier work
stability, expiry date = type: physicochemical; details: identified by State Food and Drug Administration
[4] = solution in water containing 0.1 g per 1 ml
dissolving rate = type: physicochemical

SMILES: Cc1nnc(SCC2=C(C(=O)O)N3C(=O)[C@@H](NC(=O)Cn4cnnn4)[C@H]3SC2)s1 [Cefazolin sodium]
- sensitivity (shigella): sensitive
- sensitivity [1]: very sensitive
- sensitivity (Streptococcus pneumoniae): highly sensitive
- sensitivity (Haemophilus influenzae): intermediate sensitivity
- antibacterial activity (proteus mirabilis): good antibacterial activity
- antibacterial activity (actistaphylococcus): low antibacterial activity
- sensitivity [2]: highly sensitive
- sensitivity (listeria): very sensitive
- sensitivity (neisseria): sensitive
- sensitivity (P. aeruginosa): resistant
- antibacterial activity (klebsiella pneumoniae): good antibacterial activity
- sensitivity (acinetobacter): resistant
- antibacterial activity (Gram-positive coccus): excellent antibacterial activity
- sensitivity (Typhoid bacillus): sensitive
- sensitivity [3]: resistant
- sensitivity (bacillus anthracis): very sensitive
- antibacterial activity (partial E.coli): good antibacterial activity
- sensitivity (other enterobacteriaceae): resistant

SMILES: Cc1nnc(SCC2=C(C(=O)[O-])N3C(=O)[C@@H](NC(=O)Cn4cnnn4)[C@H]3SC2)s1.O.O.O.O.O.[Na+] [cefazolin sodium pentahydrate]
- expiry date (stability, expiry date): 24 months
- pH value [4]: 4.8-6.3
- dissolving rate (dissolving rate): rapid dissolving rate
